Measurements as given in patent US12285434B2, “Therapeutic, preventive, or improvement agent for inflammatory disease and allergic disease” (The University of Tokyo, priority 2018, dated 2025).

What was measured:
anaphylaxis model mice = assay: Histamine-induced anaphylaxis: blood pressure and body temperature; format: in vivo, mouse (C57BL/6); conditions: 30 minutes after histamine 50 mg/kg intravenously, no pretreatment
Protocol: Histamine (50 mg/kg) lysed in a physiological saline solution was intravenously administered to C57BL/6 strain mice (male, 8 to 12 weeks old) to prepare anaphylaxis model mice (hereinafter, sometimes referred to as “anaphylaxis group”). […] L-NAME is an NO synthesis inhibitor. As indices of anaphylactic symptoms, a body temperature decrease and a blood pressure decrease were observed.

HUVECs = assay: Endothelial barrier function: transendothelial electrical resistance (TER); format: cell-based, human; conditions: histamine 10 μM, no pretreatment
Protocol: (§1) In Examples 4 to 6, human umbilical vein endothelial cells (hereinafter, sometimes referred to as “HUVECs”, manufactured by Lonza) were cultured in EGM-2 (manufactured by Lonza K.K.). These cells (passages 4 to 9) were used for experiments after 4-hour starvation in EBM-2 (manufactured by Lonza K.K.) containing 2% FBS.
The in vitro endothelial barrier function was evaluated by measuring the transendothelial electrical resistance (hereinafter, sometimes referred to as “TER”) of the HUVECs prepared in the above item (1) over time. Specifically, the transendothelial electrical resistance was measured using an xCELLigence Real-Time Cell Analyzer DP system (manufactured by Roche). The system monitors changes in TER across an interdigitated microelectrode at the bottom of tissue culture E-plates (manufactured by Roche). The HUVECs (8,000 cells) were plated on the E-plates and incubated until confluent. Then, the following operation (a) or (b) was performed.
(a) Each reagent was added to plates on which the HUVECs were cultured, so as to give a vehicle, 1 U/mL thrombin, 1 μM forskolin, or 0.1 μM or 0.3 μM 5,6-DiHETE (FIGS. 4A and 4B).
(b) A vehicle or […] was added to plates on which the HUVECs were cultured, so as to attain 10 μM. […] Thirty (30) minutes after the addition, 10 μM histamine was added to each plate 30 minutes after the addition (FIGS. 4C and 4D).
In the above operations (a) and (b), the TER was measured every 60 seconds. For normalization, the cell index value at each time point is shown as a ratio relative to the initial value. The maximum normalized cell index after stimulation was quantified and represented as maximal response. Note that it is known that the disruption of the endothelial barrier function lowers the TER, but that the enhancement of the endothelial barrier function increases the TER.

ear vessels of the mice = assay: In vivo microscopy of ear vessels: FITC-dextran leakage and vascular diameter after histamine; design: species or system mouse; conditions: histamine 400 μg by instillation, no pretreatment
Protocol: To visualize the ear vessels of the mice, 70 kDa fluorescein isothiocyanate-dextran (10 mg/kg, manufactured by Sigma-Aldrich) was injected intravenously. Then, immediately after the administration of fluorescein isothiocyanate-dextran, 5,6-DiHETE (0.1 μg) was administered by instillation (percutaneously administered) as a pretreatment, and this group of mice was designated as a “5,6-DiHETE-administered group.” As a control group, a group of mice not administered with 5,6-DiHETE was designated as a “[…]-administered group”. Then, 15 minutes after the administration by instillation, histamine (400 μg) was administered by instillation (percutaneously administered) into the ventral surface of the ears for both the groups. Next, the mice were placed on the stage of a microscope confocal microscope (ECLIPSE Ti with C1 confocal system, manufactured by Nikon Corporation), and their body temperatures were maintained at 37° C. Dextran leakage and vascular diameter in the ears were monitored every minute in a period from 0 to 30 minutes after the administration of histamine using EZ-C1 Free Viewer (manufactured by Nikon Corporation), and the dextran leakage, artery diameter and vein diameter were quantified according to the description of Omori, K. et al., British Journal of Pharmacology, 171:4879-4889 (2014). It is known that smooth muscle contraction reduces the downstream blood flow and limits the vascular leakage, whereas smooth muscle relaxation (increase of vascular diameter) increases the blood flow, thereby leading to vascular leakage.

NO production in HUVECs = assay: Histamine-induced NO production (nitrite and nitrate); format: cell-based, human; conditions: histamine 10 μM, no pretreatment
Protocol: as §1
The HUVECs were washed three times with HEPES and incubated in HEPES supplemented with 1 mM L-arginine and 10 μM tetrahydrobiopterin. After equilibration for 30 minutes, the medium was exchanged, and the cells were incubated for additional 30 minutes. […] The conditioned media before and after the stimulation (100 μL each) were collected and centrifuged in each amount of 300 g for 3 minutes. The supernatants were collected, and used to measure nitrite and nitrate, as stable metabolites of NO, by an ENO-20 NOx analyzer (manufactured by Eicom Corporation). The degrees of increases of nitrite and nitrate levels after the stimulation were normalized with cellular protein contents.

[1] = tested on: histamine-induced vascular permeability in mouse ears; assay: Modified Miles assay: histamine-induced vascular hyperpermeability (Evans blue extravasation); format: in vivo, mouse (C57BL/6); conditions: 400 μg histamine, no pretreatment
Protocol: Fifteen (15) minutes after the intracutaneous injection, a vehicle (80% acetone) or histamine (400 μg, manufactured by Molecular Probes) was percutaneously administered to the ventral surface of the ears. To evaluate vascular permeability, Evans blue (50 mg/kg, manufactured by Sigma) was injected intravenously 5 minutes after the administration of histamine. The mice were then euthanized by cervical dislocation 30 minutes after the injection of Evans blue. The ears were dissected, dried at 55° C., and weighed. Extravasated Evans blue present in the ears was extracted in formamide (manufactured by Molecular Probes), and quantified spectrophotometrically (manufactured by PerkinElmer Japan Co., Ltd.) at a wavelength of 610 nm.

[2] = tested on: calcium ion concentration in HUVECs; assay: Histamine-induced increase of calcium ion concentration (fura-2); format: cell-based, human; conditions: histamine 10 μM, no pretreatment
Protocol: These cells (passages 4 to 9) were used for experiments after 4-hour starvation in EBM-2 (manufactured by Lonza K.K.) containing 2% FBS.
HUVECs were incubated with a calcium fluorescence indicator (3 μg fura-2/AM containing 0.11% Cremophor EL) for 30 minutes and washed with an HEPES buffer three times. […] Then, 5 minutes after the addition of each reagent, histamine was added so as to attain 10 μM. In addition, a group to which histamine was added so as to attain 10 μM without pretreatment was also prepared. A cover slip was placed in a specialized airtight chamber mounted onto the stage of a microscope maintained at 37° C. The HUVECs were excited at 340 nm and 380 nm and the emitted fluorescence signal was measured every 3 seconds at 510 nm for 60 seconds. The fluorescence ratio (R:F340/F380) was determined using a fluorescence imaging system (AQUACOSMOS, manufactured by Hamamatsu Photonics K.K.). After the experiment, 1 μM ionomycin was added and the fluorescence changes were measured in the presence of 0 or 1.5 mM calcium ions. The calcium ion concentration was indicated as A fluorescence ratio. AUC was calculated 1 minute after each stimulus to evaluate the A fluorescence ratio. It is known that the increase of calcium ion concentration in endothelial cells promotes NO production by eNOS phosphorylation and […] smooth muscle cells (Garcia-Cardena, G. et al., Nature, 392: 821-824(1998); and Luo, Z. et al., The Journal of clinical investigation, 106: 493-499(2000)).

NCCc1c[nH]cn1 [histamine, reference compound]
body temperature decrease (anaphylaxis model mice): −2.2±0.3 °C | TER, minimum (normalized cell index) (HUVECs): 0.82±0.05 fold | artery diameter as compared with arteries nonstimulated with histamine (ear vessels of the mice): 178±13% | NO production (NO production in HUVECs): 0.31±0.06 pmol/μg protein | blue dye extravasation (Evans blue) in ear [1]: 0.14 ± 0.02 µg/mg | calcium ion concentration, AUC at 1 minute after stimulation [2]: 12.2±2.1
